Legend:
Type in all cases: binding, rat
[1] = tested on: mAb 334; experiment: Western blot of peptide-IChBD fusion proteins probed with mAb 334; details: for mAb 334 binding relative to Torpedo 39MIR: FIG. 5 Western blots, Torpedo 39MIR single mutants; for mAb 334, fold-change in binding relative to Torpedo 39MIR: Table 1, Western blot of FIG. 5, Torpedo 39MIR single mutants
Description: (§1) Chitin beads adsorbed with peptide-IChBD fusion proteins were run on an SDS-PAGE gel and transferred to a nitrocellulose membrane and assayed with the five mAbs.
(§2) To explore the effects of individual amino acid substitutions between the Torpedo and the human AChR MIR mimics, eight peptides were prepared, each with an amino acid substituted from the human sequence into the Torpedo sequence. The single amino acid substitutions in the Torpedo MIR were: N10K (SEQ ID NO:11), L12F (SEQ ID NO:12), R66K (SEQ ID NO:13), A70D (SEQ ID NO:14), I75V (SEQ ID NO:15), R79H (SEQ ID NO:16), D111Q (SEQ ID NO:17), and K115H (SEQ ID NO:18).

[2] = tested on: mAb 198; experiment: Western blot of peptide-IChBD fusion proteins probed with mAb 198; details: for mAb 198 binding relative to Torpedo 39MIR: FIG. 5 Western blots, Torpedo 39MIR single mutants; for mAb 198, fold-change in binding relative to Torpedo 39MIR: Table 1, Western blot of FIG. 5, Torpedo 39MIR single mutants
Excerpt: (§3) Chitin beads adsorbed with peptide-IChBD fusion proteins were run on an SDS-PAGE gel and transferred to a nitrocellulose membrane and assayed with the four mAbs.
as §1
The Torpedo (SEQ ID NO:9) and human (SEQ ID NO:8) 39MIRs were made by joining the α(1-12), α(65-79), and α(110-115) segments of their respective a subunits with GS linkers. These two MIR mimics were expressed in E. coli as fusion proteins with an IChBD tag to permit peptide collection on chitin beads. These two peptides differ from each other by eight amino acids (FIG. 2). Both mimics were probed with mAb 198. mAb 198, which was derived from rats that had been immunized with human muscle AChR, is a MIR-directed mAb that binds mammalian as well as Torpedo MIR (13,21). It was also able to passively transfer EAMG to rats and binds to both native assembled AChR and to α-subunit fragments in Western blots (22,23). mAb 198 binds to the Torpedo and human MIR peptide mimics in Western blots (FIG. 3). However, mAb 198 binds to the Torpedo mimic about 50 times more strongly than to the human MIR mimic (FIG. 3).
as §2

[3] = tested on: mAb 132A; experiment: Western blot of peptide-IChBD fusion proteins probed with mAb 132A; details: for mAb 132A binding relative to binding to the Torpedo 39MIR: FIG. 5 Western blots, Torpedo 39MIR single mutants; for mAb 132A, fold-change in binding relative to Torpedo 39MIR: Table 1, Western blot of FIG. 5, Torpedo 39MIR single mutants
Description: as §3, §1, §2

[4] = tested on: mAb 35; experiment: Western blot of peptide-IChBD fusion proteins probed with mAb 35; parameters: key to mAb 35, fold-change in binding relative to Torpedo 39MIR: ‘—’ denotes no binding; details: for mAb 35, fold-change in binding relative to Torpedo 39MIR: Table 1, Western blot of FIG. 5, Torpedo 39MIR single mutants; for mAb 35 binding, result in words: Western blot; for mAb 35 binding relative to binding to the Torpedo 39MIR: FIG. 5 Western blots, Torpedo 39MIR single mutants
Description: as §3, §1, §2

Row | Sequence | mAb 334 binding relative to Torpedo 39MIR [1] [×] | mAb 334, fold-change in binding relative to Torpedo 39MIR [1] [fold-change] | mAb 198 binding relative to Torpedo 39MIR [2] [×] | mAb 198, fold-change in binding relative to Torpedo 39MIR [2] [fold-change] | mAb 132A binding relative to binding to the Torpedo 39MIR [3] [×] | mAb 132A, fold-change in binding relative to Torpedo 39MIR [3] [fold-change] | mAb 35, fold-change in binding relative to Torpedo 39MIR [4] | mAb 35 binding, result in words [4] | mAb 35 binding relative to binding to the Torpedo 39MIR [4] [×] | mAb 132A binding, result in words ([3]; Western blot)
1 | SEHETRLVANLLGGGSLRWNPADYGGIKKIRGSLQYTGK (synthetic main immunogenic region (MIR) peptide) [Mutant D111Q, Torpedo 39MIR single mutant (D111Q)] | 0.02 | 0.02 | 0.16 | 0.16 | 0.07 | 0.07 | — | did not bind |  | 
2 | SEHETRLVANLLGGGSLRWNPDDYGGIKKIRGSLDYTGK (synthetic main immunogenic region (MIR) peptide) [Mutant A70D, Torpedo 39MIR single mutant (A70D)] | 1.04 | 1.04 |  | 1.08 | 0.20 | 0.20 | 0.93 fold-change |  | 0.93 | 
3 | SEHETRLVAKLFGGGSLKWNPDDYGGVKKIHGSLDYTGH [rat 39 MIR] (synthetic main immunogenic region (MIR) peptide) [Mouse 39MIR; rat/mouse 39MIR homolog] |  |  |  |  |  |  |  | did not bind |  | did not bind
4 | SEHETRLVANLLGGGSLKWNPADYGGIKKIRGSLDYTGK (synthetic main immunogenic region (MIR) peptide) [Mutant R66K, Torpedo 39MIR single mutant (R66K)] | 2.75 | 2.75 |  | 1.03 | 1.55 | 1.55 | 0.62 fold-change |  | 0.62 | 
5 | SEHETRLVANLFGGGSLRWNPADYGGIKKIRGSLDYTGK (synthetic main immunogenic region (MIR) peptide) [Mutant L12F, Torpedo 39MIR single mutant (L12F)] | 0.88 | 0.88 |  | 0.90 | 1.10 | 1.10 | 1.42 fold-change |  | 1.42 | 
6 | SEHETRLVANLLGGGSLRWNPADYGGVKKIRGSLDYTGK (synthetic main immunogenic region (MIR) peptide) [Mutant I75V, Torpedo 39MIR single mutant (I75V)] | 0.03 | 0.03 | 0.16 | 0.16 | 0.07 | 0.06 | — | did not bind |  | 
7 | SEHETRLVAKLLGGGSLRWNPADYGGIKKIRGSLDYTGK (synthetic main immunogenic region (MIR) peptide) [Mutant N10K, Torpedo 39MIR single mutant (N10K)] | 0.59 | 0.59 | 0.82 | 0.82 | 0.03 | 0.03 | 0.29 fold-change |  | 0.29 | 

Reference: US11422132B2, “Peptides and uses thereof for diagnosing and treating myasthenia gravis” (The Regents of the University of California, priority 2016, dated 2022)
